{"source": "paper PMC9334755", "about": "(Cancer Biology & Medicine, 2021)", "key": {"BTK [1]": {"biological_target": "T1, BTK (Homo sapiens, UniProt Q06187)", "T1 sequence (Q06187 whole entry)": "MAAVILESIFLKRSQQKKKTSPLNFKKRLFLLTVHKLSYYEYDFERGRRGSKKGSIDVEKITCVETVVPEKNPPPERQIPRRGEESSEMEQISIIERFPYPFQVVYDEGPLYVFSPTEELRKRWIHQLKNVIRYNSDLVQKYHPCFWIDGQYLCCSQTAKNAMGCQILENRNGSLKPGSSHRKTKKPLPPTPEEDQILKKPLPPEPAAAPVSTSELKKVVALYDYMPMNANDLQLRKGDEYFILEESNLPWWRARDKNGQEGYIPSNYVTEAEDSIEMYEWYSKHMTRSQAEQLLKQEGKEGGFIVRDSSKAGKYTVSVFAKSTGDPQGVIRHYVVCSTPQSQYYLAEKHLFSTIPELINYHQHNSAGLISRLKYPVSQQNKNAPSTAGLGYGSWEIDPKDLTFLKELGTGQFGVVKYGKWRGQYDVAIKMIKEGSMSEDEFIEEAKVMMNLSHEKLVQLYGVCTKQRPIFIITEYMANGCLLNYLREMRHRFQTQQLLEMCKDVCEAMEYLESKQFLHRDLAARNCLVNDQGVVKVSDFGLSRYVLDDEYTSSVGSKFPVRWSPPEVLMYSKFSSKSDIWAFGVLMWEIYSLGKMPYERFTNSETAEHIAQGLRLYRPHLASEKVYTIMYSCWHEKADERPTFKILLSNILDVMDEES", "test": "HTRF assay of BTK activity", "format": "biochemical", "conditions": "double reciprocal curve"}, "FRK": {"biological_target": "FRK (Homo sapiens, UniProt P42685)", "sequence (P42685 whole entry)": "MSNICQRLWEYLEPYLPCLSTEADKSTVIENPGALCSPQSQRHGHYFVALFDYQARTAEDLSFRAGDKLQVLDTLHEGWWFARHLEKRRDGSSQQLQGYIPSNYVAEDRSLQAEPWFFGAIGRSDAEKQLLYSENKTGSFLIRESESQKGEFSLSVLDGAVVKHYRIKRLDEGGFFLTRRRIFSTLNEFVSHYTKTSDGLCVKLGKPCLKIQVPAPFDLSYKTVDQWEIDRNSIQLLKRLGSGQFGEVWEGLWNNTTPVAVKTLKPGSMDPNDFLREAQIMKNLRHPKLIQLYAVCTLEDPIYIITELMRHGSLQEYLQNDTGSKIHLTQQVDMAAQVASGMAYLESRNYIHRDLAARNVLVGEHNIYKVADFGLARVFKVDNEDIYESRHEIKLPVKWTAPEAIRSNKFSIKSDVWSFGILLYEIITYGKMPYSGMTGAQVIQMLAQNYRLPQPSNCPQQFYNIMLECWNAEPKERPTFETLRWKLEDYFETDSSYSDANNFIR", "test": "Protein kinase panel at 1 µM, FRK", "format": "biochemical"}, "PTK6": {"biological_target": "PTK6 (Homo sapiens, UniProt Q13882)", "sequence (Q13882 whole entry)": "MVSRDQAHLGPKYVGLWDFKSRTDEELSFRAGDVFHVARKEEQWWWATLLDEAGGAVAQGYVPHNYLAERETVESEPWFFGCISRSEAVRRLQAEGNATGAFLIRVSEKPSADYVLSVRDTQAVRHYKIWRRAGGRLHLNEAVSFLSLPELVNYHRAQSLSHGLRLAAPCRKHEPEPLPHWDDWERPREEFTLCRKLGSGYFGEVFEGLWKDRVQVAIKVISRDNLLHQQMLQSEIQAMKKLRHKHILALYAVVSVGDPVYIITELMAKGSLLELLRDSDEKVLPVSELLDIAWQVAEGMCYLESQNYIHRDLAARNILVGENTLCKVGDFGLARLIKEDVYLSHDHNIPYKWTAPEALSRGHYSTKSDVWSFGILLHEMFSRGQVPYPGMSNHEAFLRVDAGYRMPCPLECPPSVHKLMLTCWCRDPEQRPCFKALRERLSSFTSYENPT", "test": "Protein kinase panel at 1 µM, PTK6", "format": "biochemical"}, "Beagle dog": {"system": "Beagle dog", "conditions": "in vivo", "description": "(§1) Table S9 Preclinical safety of SY-1530\n(§2) Group Single-dose toxicity Multiple-dose toxicity\n(§3) Animal Rat Beagle dog Rat Beagle dog"}, "Rat": {"system": "Rat", "conditions": "in vivo", "description": "as §1, §2, §3"}, "[2]": {"system": "spontaneous canine B-cell lymphoma", "test": "Spontaneous canine B-cell lymphoma", "format": "in vivo, dog", "set-up": "key to Outcome: CR: complete response; PR: partial response; PD: progressive disease; SD: stable disease", "protocol": "Dogs with spontaneous lymphoma were purchased from the China Agricultural University Veterinary Teaching Hospital, and the study was approved by the institutional animal care and use committee of Shouyao Holdings (approval No. CTA-2014003). The inclusion criterion was a confirmed histologic diagnosis of B-cell lymphoma (on the basis of immunohistochemistry for CD21 and CD79a). SY-1530 capsules (20–40 mg) were administered daily until disease progression. The dogs were re-examined every week for 4 weeks and subsequently biweekly. The sum of the longest diameters of all target lesions was defined as the tumor burden. According to the criteria for evaluation of the response of peripheral nodal lymphoma in dogs developed by the Veterinary Cooperative Oncology Group, the response was classified as complete response, partial response, progressive disease, or stable disease."}, "BTK [3]": {"biological_target": "T1, BTK", "test": "LC-MS/MS of free inhibitor after incubation with BTK", "format": "binding", "protocol": "In addition, after incubation of BTK with the inhibitors for 4 h, we performed liquid chromatography-tandem mass spectrometry (LC-MS/MS) to detect the abundance of the inhibitors.\n(A) The compounds were incubated with BTK for 2 h, after which HTRF assays were performed with dilution of the mixture. The reactions were stopped at different time points. Data are shown as the mean ± SEM. (B) The content of the compounds was measured with LC-MS/MS after incubation with BTK for 4 h. Data are shown as the mean ± SEM (n = 3). Statistical analysis was performed with Student’s t-test (***P < 0.001). […] Cells were lysed and analyzed by Western blot and fluorescent gel scanning.\nData are shown as the mean ± SEM. […] Data are shown as the mean ± SEM of 3 independent experiments. Statistical analysis was performed with Student’s t-test (**P < 0.01, ***P < 0.001). […] Cells were lysed and then analyzed by Western blot and fluorescent gel scanning. […] Cells were lysed and analyzed by Western blot and fluorescent gel scanning."}, "Pfeiffer cells": {"system": "Pfeiffer cells", "test": "Apoptosis detection (Annexin V / 7-AAD) in Pfeiffer cells", "format": "cell-based", "conditions": "24 h, Annexin V and 7-AAD", "protocol": "Apoptosis assays were performed with an Annexin V-PE Apoptosis Detection Kit I (BD Biosciences). Briefly, 5 × 10^5 Pfeiffer cells were seeded on 6-well plates and treated with BTK inhibitors at the indicated concentrations. After 24 h or 48 h, cells were collected and stained with PE Annexin V and 7-AAD according to the manufacturer’s instructions. FACS analysis was performed with a Guava flow cytometer.\nFigure 4 SY-1530 blocks B-cell receptor signaling and induces apoptosis. (A–D) Human B and T cells were purified and incubated with different concentrations of BTK inhibitors for 1 h. B cells were stimulated with 50 μg/mL anti-human IgM F(ab′)2, and T cells were stimulated with 50 μg/mL anti-CD3/CD28 beads overnight directly or after washout of BTK inhibitors before stimulation. The percentage of CD69 positive cells was analyzed by flow cytometry. Data are shown as the mean ± SEM (n = 3). Statistical analysis was performed with Student’s t-test (*P < 0.05, **P < 0.01, ***P < 0.001). (E) Pfeiffer cells and Romas cells were preincubated with different concentrations of compounds for 1 h, washed with PBS, and then stimulated with anti-IgM/anti-IgG (10 μg/mL) for 10 min. Cells were lysed and analyzed by Western blot with the indicated antibodies. […] The cells were stained with both PE-Annexin and 7-AAD and analyzed by flow cytometry. […] Cells were lysed and analyzed with specific antibodies."}, "TMD8 xenografts": {"system": "TMD8 xenografts", "test": "TMD8 tumor xenograft in SCID mice", "format": "in vivo", "protocol": "TMD8 cells (1.0 × 10^7 cells in 100 µL of serum-free medium containing 40% Matrigel) were injected subcutaneously into SCID mice (6–8 weeks of age), and the tumor volume was monitored twice per week. […] The compounds were formulated in 0.5% methylcellulose containing 0.1% sodium lauryl sulfate. Tumor size and body weight were measured twice per week. All experiments were approved by the institutional animal care and use committee of Shouyao Holdings and were performed in accordance with the guidelines in the U.S. National Institutes of Health Guide for the Care and Use of Laboratory Animals (Approval No. CTA-2015063).\nFigure 5 SY-1530 inhibits B-cell malignancy in vivo. (A–D) TMD8 cells were injected subcutaneously into SCID mice (6–8 weeks of age; 8 mice per group). […] Tumor size (A) and body weight (B) were measured […]. On the last day, mice were sacrificed 2.5 h after administration. LC-MS/MS was performed to measure the concentration of SY-1530 in plasma (C), and tumor samples were collected and analyzed with Western blot (D). QD represents administration once daily. Data are shown as mean ± SEM. Statistical analysis was performed with two-way analysis of variance (*P < 0.05; **P < 0.01; ***P < 0.001). […] Tumor size (E), body weight (F), SY-1530 concentration in the plasma (G), and protein expression in tumors (H) were measured. Data are shown as mean ± SEM. Statistical analysis was performed with two-way analysis of variance (*P < 0.05; **P < 0.01; ***P < 0.001)."}, "[4]": {"conditions": "mouse"}}, "data": [{"smiles": "COC/C=C/C(=O)N1CC[C@@H](n2nc(-c3ccc(Oc4ccccc4)cc3)c(C(N)=O)c2N)C1", "note": "[SY-1530]", "values": [{"measurement": "Type of inhibition with respect to ATP", "setting": "BTK [1]", "value": "non-ATP competitive inhibitor"}, {"measurement": "Inhibition (%), FRK", "setting": "FRK", "value": 72, "unit": "%"}, {"measurement": "Inhibition (%), PTK6", "setting": "PTK6", "value": 92, "unit": "%"}, {"measurement": "MTD", "setting": "Beagle dog", "value": 1000, "unit": "mg/kg"}, {"measurement": "MTD", "setting": "Rat", "value": 2000, "unit": "mg/kg"}, {"measurement": "Outcome", "setting": "[2]; Dog 01, stage IVb, dose 20/35 mg/kg, treatment interval 21 d", "value": "SD/PR"}, {"measurement": "Outcome", "setting": "[2]; Dog 02, stage IVa, dose 20/30/40 mg/kg, treatment interval 150 d", "value": "CR"}, {"measurement": "Outcome", "setting": "[2]; Dog 04, stage IVa, dose 20/30/40 mg/kg, treatment interval 21 d", "value": "SD"}, {"measurement": "Outcome", "setting": "[2]; Dog 06, stage IVa, dose 20/30/40 mg/kg, treatment interval 21 d", "value": "SD"}, {"measurement": "Outcome", "setting": "[2]; Dog 07, stage IVa, dose 20/30 mg/kg, treatment interval 14 d", "value": "SD"}, {"measurement": "Outcome", "setting": "[2]; Dog 08, stage IVa, dose 35 mg/kg, treatment interval 21 d", "value": "SD"}, {"measurement": "Outcome", "setting": "[2]; Dog 09, stage IVa, dose 35 mg/kg, treatment interval 21 d", "value": "SD"}, {"measurement": "Outcome", "setting": "[2]; Dog 10, stage IVa, dose 35 mg/kg, treatment interval 28 d", "value": "PR"}, {"measurement": "Outcome", "setting": "[2]; Dog 11, stage IIIa, dose 35 mg/kg, treatment interval 14 d", "value": "PR"}, {"measurement": "Outcome", "setting": "[2]; Dog 12, stage IVa, dose 35 mg/kg, treatment interval 21 d", "value": "SD"}, {"measurement": "Number of dogs with complete response", "setting": "[2]; of 10 dogs", "value": 1}, {"measurement": "Number of dogs with partial response", "setting": "[2]; of 10 dogs", "value": 3}, {"measurement": "Number of dogs with stable disease", "setting": "[2]; of 10 dogs", "value": 6}, {"measurement": "Incubation time to saturation of covalent binding to BTK kinase", "setting": "BTK [3]", "value": 30, "unit": "min"}, {"measurement": "Decrease of free inhibitor after incubation with BTK", "setting": "BTK [3]; 4 h incubation", "value": "more than 80%"}, {"measurement": "Apoptosis in Pfeiffer cells", "setting": "Pfeiffer cells", "value": "induced early and late apoptosis"}, {"measurement": "Inhibitory potency on tumor growth", "setting": "TMD8 xenografts; 30 mg/kg BID", "value": "better inhibitory potency on tumor growth than the same dose of ibrutinib"}, {"measurement": "Anti-tumor activity", "setting": "TMD8 xenografts; 30 mg/kg QD", "value": "comparable to that of ibrutinib at 100 mg/kg"}, {"measurement": "Inhibitory potency on tumor growth", "setting": "TMD8 xenografts; 100 mg/kg QD, versus ibrutinib 100 mg/kg QD", "value": "better inhibitory potency on tumor growth than ibrutinib"}, {"measurement": "Mouse bodyweight", "setting": "TMD8 xenografts; BID groups", "value": "moderate decrease"}, {"measurement": "Tumor growth versus vehicle treated group", "setting": "TMD8 xenografts; BID, SY-1530 30 or 10 mg/kg, ibrutinib 30 mg/kg", "value": "dramatically lower"}, {"measurement": "Bodyweights of mice", "setting": "TMD8 xenografts; QD groups", "value": "moderately changed"}, {"measurement": "Concentration in plasma", "setting": "TMD8 xenografts; QD groups, 2.5 h after administration on the last day", "value": "higher than those of ibrutinib"}, {"measurement": "Tumor volume", "setting": "TMD8 xenografts; oral, QD, 29 days", "value": "significant decrease in tumor volumes"}, {"measurement": "Plasma protein binding (%)", "setting": "[4]", "value": 94.8, "unit": "%"}]}]}
